From US8791143B2, “Anthranilic diamide derivatives having cyclic side-chains” (priority 2010, dated 2014)
Like-named read-outs stand apart in the source and are kept apart here.

Key:
[1] = tested on: caterpillars of the armyworm (Spodoptera frugiperda); assay: Spodoptera frugiperda test (SPODFR spray treatment); format: in vivo; conditions: Spodoptera frugiperda, 168 h, read-out: activity in % (caterpillars killed)
[2] = tested on: larvae of the mustard beetle (Phaedon cochleariae); assay: Phaedon test (PHAECO spray treatment); conditions: Phaedon cochleariae, 168 h, read-out: activity in % (beetle larvae killed)
[3] = log P by HPLC on reversed-phase columns (EEC Directive 79/831 Annex V.A8); format: physicochemical
[4] = application rate 100 g/ha, after 7 days
[5] = reversed-phase C18 HPLC column, pH 2.7, HPLC reversed-phase C18, acidic range pH 2.7 (HCOOH), only or first value of the cell, read-out: log P

## Cc1cc(Cl)cc(C(=O)NC(C)c2ccc(Cl)cc2F)c1NC(=O)c1cc(Cn2nnc(C(F)(F)F)n2)nn1-c1ncccc1Cl (stereo not drawn) [Example 125]
[1]; [4]
  pest or weed control at 100 g/ha: 100%
[2]
  pest or weed control at 100 g/ha: 100%
[3]; [5]
  chromatographic logP: 4.42

## Cc1cc(C#N)cc(C(=O)NC2COC2)c1NC(=O)c1cc(Cn2nc(C(F)(F)F)nc2C(F)(F)F)nn1-c1ncccc1Cl [Example 13]
[1]
  pest or weed control at 100 g/ha: 100%
[2]
  pest or weed control at 100 g/ha: 100%
[3]; pH 2.7, log P
  chromatographic logP: 2.95

## Cc1cc(Cl)cc(C(=O)NCc2cccc(-c3ccccc3)n2)c1NC(=O)c1cc(Cn2nnc(C(F)(F)F)n2)nn1-c1ncccc1Cl [Example 233]
[1]; [4]
  pest or weed control at 100 g/ha: 100%
[2]
  pest or weed control at 100 g/ha: 100%
[3]; [5]
  chromatographic logP: 4.27

## O=C(NCc1cccc(Cl)c1)c1cc(Br)cc(Cl)c1NC(=O)c1cc(Cn2nnc(C(F)(F)F)n2)nn1-c1ncccc1Cl [Example 204]
[1]
  pest or weed control at 100 g/ha: 100%
[2]
  pest or weed control at 100 g/ha: 100%
[3]; pH 2.7, log P
  chromatographic logP: 4.09

## Cc1cc(Cl)cc(C(=O)NC2COC2)c1NC(=O)c1cc(Cn2nnc(C(F)(F)C(F)(F)F)n2)nn1-c1ncccc1Cl [Example 9]
[1]
  pest or weed control at 100 g/ha: 100%
[2]
  pest or weed control at 100 g/ha: 100%
[3]; pH 2.7, log P
  chromatographic logP: 3.21

## Cc1cc(Cl)cc(C(=O)NC(C)c2ccc(F)cc2)c1NC(=O)c1cc(Cn2nnc(C(F)(F)F)n2)nn1-c1ncccc1Cl (stereo not drawn) [Example 122]
[1]
  pest or weed control at 100 g/ha: 100%
[2]
  pest or weed control at 100 g/ha: 100%
[3]; pH 2.7, log P
  chromatographic logP: 4

## O=C(NCc1ccc(Cl)cc1)c1cc(Br)cc(Cl)c1NC(=O)c1cc(Cn2nnc(C(F)(F)F)n2)nn1-c1ncccc1Cl [Example 205]
[1]
  pest or weed control at 100 g/ha: 100%
[2]
  pest or weed control at 100 g/ha: 100%
[3]; pH 2.7, log P
  chromatographic logP: 4.08

## Cc1ccc(C(C)NC(=O)c2cc(Cl)cc(C)c2NC(=O)c2cc(Cn3nnc(C(F)(F)F)n3)nn2-c2ncccc2Cl)cc1 (stereo not drawn) [Example 114]
[1]
  pest or weed control at 100 g/ha: 100%
[2]
  pest or weed control at 100 g/ha: 100%
[3]; pH 2.7, log P
  chromatographic logP: 4.24

## Cc1cc(Cl)cc(C(=O)NCC2(C)CCCO2)c1NC(=O)c1cc(Cn2nnc(C(F)(F)F)n2)nn1-c1ncccc1Cl (stereo not drawn) [Example 61]
[1]
  pest or weed control at 100 g/ha: 100%
[2]
  pest or weed control at 100 g/ha: 100%
[3]; pH 2.7, log P
  chromatographic logP: 3.48

## Cc1cc(C#N)cc(C(=O)NCc2ccc(OC(F)F)cc2)c1NC(=O)c1cc(Cn2nnc(C(F)(F)F)n2)nn1-c1c(Cl)cccc1Cl [Example 216]
[1]; [4]
  pest or weed control at 100 g/ha: 100%
[2]
  pest or weed control at 100 g/ha: 100%
[3]; [5]
  chromatographic logP: 4.1

## Cc1cccc(C(C)NC(=O)c2cc(Cl)cc(C)c2NC(=O)c2cc(Cn3nnc(C(F)(F)F)n3)nn2-c2ncccc2Cl)c1 (stereo not drawn) [Example 113]
[1]
  pest or weed control at 100 g/ha: 100%
[2]
  pest or weed control at 100 g/ha: 100%
[3]; pH 2.7, log P
  chromatographic logP: 4.28

## Cc1cc(Cl)cc(C(=O)NCc2ccccc2F)c1NC(=O)c1cc(Cn2nnc(C(F)(F)F)n2)nn1-c1ncccc1Cl [Example 83]
[1]
  pest or weed control at 100 g/ha: 100%
[2]
  pest or weed control at 100 g/ha: 100%
[3]; pH 2.7, log P
  chromatographic logP: 3.77

## Cc1cc(C#N)cc(C(=O)NCc2cccc(OC(F)(F)F)c2)c1NC(=O)c1cc(Cn2nnc(C(F)(F)F)n2)nn1-c1c(Cl)cccc1Cl [Example 214]
[1]; [4]
  pest or weed control at 100 g/ha: 100%
[2]
  pest or weed control at 100 g/ha: 100%
[3]; [5]
  chromatographic logP: 4.23

## Cc1c(F)ccc(C(=O)NCc2ccccc2Cl)c1NC(=O)c1cc(Cn2nnc(C(F)(F)F)n2)nn1-c1ncccc1Cl [Example 202]
[1]
  pest or weed control at 100 g/ha: 100%
[2]
  pest or weed control at 100 g/ha: 100%
[3]; pH 2.7, log P
  chromatographic logP: 3.79

## Cc1cc(F)cc(C(=O)NCc2cccc(OC(F)(F)F)c2)c1NC(=O)c1cc(Cn2nnc(C(F)(F)F)n2)nn1-c1ncccc1Cl [Example 169]
[1]; [4]
  pest or weed control at 100 g/ha: 100%
[2]
  pest or weed control at 100 g/ha: 100%
[3]; [5]
  chromatographic logP: 3.95

## Cc1cc(C#N)cc(C(=O)NCc2ccc(OC(F)(F)F)cc2)c1NC(=O)c1cc(Cn2nnc(C(F)(F)F)n2)nn1-c1ccccc1Cl [Example 192]
[1]; [4]
  pest or weed control at 100 g/ha: 100%
[2]
  pest or weed control at 100 g/ha: 100%
[3]; [5]
  chromatographic logP: 3.98

## Cc1cc(Cl)cc(C(=O)NCc2ccccc2)c1NC(=O)c1cc(Cn2nnc(C(F)(F)F)n2)nn1-c1ncccc1Cl [Example 81]
[1]
  pest or weed control at 100 g/ha: 100%
[2]
  pest or weed control at 100 g/ha: 100%
[3]; pH 2.7, log P
  chromatographic logP: 3.77

## Cc1cc(C#N)cc(C(=O)NCc2ccccc2OC(F)(F)F)c1NC(=O)c1cc(Cn2nnc(C(F)(F)F)n2)nn1-c1c(Cl)cccc1Cl [Example 188]
[1]; [4]
  pest or weed control at 100 g/ha: 100%
[2]
  pest or weed control at 100 g/ha: 100%
[3]; [5]
  chromatographic logP: 4.13

## Cc1cc(Cl)cc(C(=O)NCc2cc(Cl)ccc2Cl)c1NC(=O)c1cc(Cn2nnc(C(F)(F)F)n2)nn1-c1ncccc1Cl [Example 106]
[1]
  pest or weed control at 100 g/ha: 100%
[2]
  pest or weed control at 100 g/ha: 100%
[3]; pH 2.7, log P
  chromatographic logP: 4.39
